Results taken from publication PMC8216263 (Pharmaceutical Biology, 2021).
Like-named read-outs stand apart in the source and are kept apart here.

Experiment: Urinary excretion of GA and PCA after oral RLQ in healthy subjects
Format: in vivo, human
Conditions: for fraction unbound / dose excreted: human, urine, oral, 8 g; for fraction unbound: urine within 24 h, read-out: Fu (fraction of administered dose excreted in the urine); for dose excreted: abstract summary, read-out: 24 h urine recovery rate
Experimental: In the single-dose study, 8 g of RLQ was administered orally on day 1. A 7-d washout time was designed between single-dose and multiple-dose pharmacokinetic studies. In the multiple-dose study, subjects received multiple doses of RLQ (8 g, t.i.d.) for seven consecutive days from day 8 to day 14 and a single dose of RLQ (8 g) on the morning of day 15. On days 1 and 15, blood samples (3 mL) were collected from the antecubital vein catheter before drug administration and at 0.08, 0.17, 0.33, 0.5, 0.75, 1, 1.5, 2, 3, 4, 6, 8, 12 and 24 h after dosing. Additional pre-dose samples were collected in the morning on days 12, 13 and 14. Urine samples were collected over a 12 h interval before dosing and at the following time intervals thereafter: 0–2, 2–5, 5–8, 8–12 and 12–24 h. All samples were stored at −80 °C until analysis.
All analytes were extracted from plasma and urine samples by simple protein precipitation extraction method using acetonitrile. Briefly, 5 µL of internal standard solution and 300 μL of acetonitrile were added to the spiked blank matrix (100 μL) and vortexed for 3 min and then centrifuged at 13,000 × g for 10 min. The supernatant was transferred and dried using a flow of nitrogen. The residue was re-dissolved in 100 µL of 10% methanol solution containing 0.1% formic acid. An aliquot of 5 µL solution was injected into the LC-MS/MS system for analysis.
The GA and PCA concentrations were determined using a validated LC-MS/MS method with some modifications (Ma et al. [2015]). The chromatographic separation was performed on an Acquity Ultra Performance LC instrument (Waters, Milford, MA) with a gradient programme in an ACQUITY UPLC BEH C18 column (2.1 mm × 100 mm, 1.7 μm). The gradient programme was performed with the mobile phase (0.3 mL/min) consisting of 0.1% formic acid aqueous solution (A) and acetonitrile (B) as follows: 97% A (0–8.5 min), 60% A (8.7–11 min), 10% A (11.5–13.5 min) and 97% A (14–15 min). The injection volume was 2 µL. The mass spectrometry analysis was performed on an AB Sciex Triple Quad 5500 MS (Framingham, MA) equipped with an ESI source. The quantitative analyses of GA, PCA and chloramphenicol were performed in a negative mode by multiple reaction monitoring (MRM) with the ion transitions of m/z 169.0→125.1, 153.1→109.0 and 321.1→152.1, respectively.
Pharmacokinetic parameters of GA and PCA were estimated with a non-compartmental method using Phoenix WinNonlin version 6.4 (Certara, Princeton, NJ). The peak plasma concentration (Cmax) and time to reach the peak plasma concentration (Tmax) were calculated from the actual plasma concentration data. The area under the plasma concentration-time curve from zero to the last measurable concentration (AUC0–t) was calculated via the linear trapezoidal rule. AUC0–∞ was calculated using the following formula: AUC0–∞ = AUC0–t + Ct/ke, where Ct is the last plasma concentration measured. The terminal elimination half-life (t1/2) was calculated as 0.693/ke, and the total clearance (CL/F) was calculated as dose/AUC0–∞. The accumulation index was calculated as AUCss/AUC0–t.

SMILES | fraction unbound (multiple dose RLQ 8 g) | fraction unbound (single dose RLQ 8 g) | dose excreted [%] | amount recovered in urine within 24 h (single dose RLQ 8 g) [mg] | mean urinary concentration (first 2 h after administration of RLQ 8 g) [µg/L]
O=C(O)c1cc(O)c(O)c(O)c1 [GA, gallic acid] | 0.107 | ~0.086 | ~10 | 2.48 ± 1.34 | 
O=C(O)c1ccc(O)c(O)c1 [PCA, protocatechuic acid] |  | ~0.042 | ~5 | 0.046 ± 0.040 | ~150
